Source: ChEMBL document CHEMBL3286227, “Guanidinium-based derivatives: searching for new kinase inhibitors” (Eur J Med Chem, 2014)

Key:
HL-60 [1] = experiment: Cell cycle arrest in human HL60 cells assessed as accumulation at G2/M phase at 25 uM after 48 hrs by propidium iodide staining-based flow cytometry (reference value: 18.4 +/- 1.3%); assay type: functional
HL-60 [2] = experiment: Cell cycle arrest in human HL60 cells assessed as accumulation at Gn phase at 1 uM after 72 hrs by propidium iodide staining-based flow cytometry (reference value: 2.49 +/- 0.3%); assay type: functional
HL-60 [3] = experiment: Cell cycle arrest in human HL60 cells assessed as accumulation at pre-G1 phase at 10 uM after 72 hrs by propidium iodide staining-based flow cytometry (reference value: 0.14%); assay type: functional
HL-60 [4] = experiment: Cell cycle arrest in human HL60 cells assessed as accumulation at G0/G1 phase at 25 uM after 48 hrs by propidium iodide staining-based flow cytometry (reference value: 57.0 +/- 1.0%); assay type: functional
HL-60 [5] = experiment: Cell cycle arrest in human HL60 cells assessed as accumulation at S phase at 10 uM after 48 hrs by propidium iodide staining-based flow cytometry (reference value: 21.5 +/- 1.0%); assay type: functional
HL-60 [6] = experiment: Cell cycle arrest in human HL60 cells assessed as accumulation at G0/G1 phase at 1 uM after 72 hrs by propidium iodide staining-based flow cytometry (reference value: 65.7 +/- 0.1%); assay type: functional
[7] = target: Glycogen synthase kinase-3 beta (Homo sapiens, UniProt P49841); experiment: Inhibition of human recombinant GSK-3 beta after 30 mins by luminescence assay
Sequence of Glycogen synthase kinase-3 beta (P49841 whole entry): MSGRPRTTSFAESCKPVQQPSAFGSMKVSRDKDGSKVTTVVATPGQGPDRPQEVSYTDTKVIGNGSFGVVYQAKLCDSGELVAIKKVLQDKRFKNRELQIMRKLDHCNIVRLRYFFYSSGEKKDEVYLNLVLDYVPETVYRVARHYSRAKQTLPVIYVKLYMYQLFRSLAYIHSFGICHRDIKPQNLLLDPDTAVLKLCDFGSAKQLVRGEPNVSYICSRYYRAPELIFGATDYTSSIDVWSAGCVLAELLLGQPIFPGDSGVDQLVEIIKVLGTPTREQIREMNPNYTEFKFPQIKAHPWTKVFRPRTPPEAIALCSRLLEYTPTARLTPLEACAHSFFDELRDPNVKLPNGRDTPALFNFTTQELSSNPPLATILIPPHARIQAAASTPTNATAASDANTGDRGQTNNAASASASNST

HL-60 [8] = experiment: Cell cycle arrest in human HL60 cells assessed as accumulation at pre-G1 phase at 1 uM after 72 hrs by propidium iodide staining-based flow cytometry (reference value: 0.14%); assay type: functional
HL-60 [9] = experiment: Cell cycle arrest in human HL60 cells assessed as accumulation at pre-G1 phase at 50 uM after 72 hrs by propidium iodide staining-based flow cytometry (reference value: 0.14%); assay type: functional
HL-60 [10] = experiment: Cell cycle arrest in human HL60 cells assessed as accumulation at G2/M phase at 1 uM after 72 hrs by propidium iodide staining-based flow cytometry (reference value: 14.8 +/- 0.7%); assay type: functional
HL-60 [11] = experiment: Cell cycle arrest in human HL60 cells assessed as accumulation at G0/G1 phase at 50 uM after 48 hrs by propidium iodide staining-based flow cytometry (reference value: 57.0 +/- 1.0%); assay type: functional
HL-60 [12] = experiment: Cell cycle arrest in human HL60 cells assessed as accumulation at Gn phase at 25 uM after 48 hrs by propidium iodide staining-based flow cytometry (reference value: 2.49 +/- 0.4%); assay type: functional

- IC50 [7]: > 100 µM
Structure (SMILES): Cl.N=C(N)Nc1ccc(Oc2cccc(NC(=N)Nc3ccc(Cl)c(C(F)(F)F)c3)c2)cc1
- Activity (HL-60 [1]): 20.2%
- Activity (HL-60 [2]): 3.23%
- Activity (HL-60 [3]): 0.23%
- Activity (HL-60 [4]): 69.2%
- Activity (HL-60 [5]): 14.7%
- Activity (HL-60 [6]): 61.7%
- Activity (HL-60 [8]): 0.13%
- Activity (HL-60 [9]): 25.1%
- Activity (HL-60 [10]): 16.7%
- Activity (HL-60 [11]): 44.6%
- Activity (HL-60 [12]): 2.17%
